Experimental data published in US20250134907A1, “FUSED DIAZEPINES AS AGONISTS OF THE INSULIN-LIKE 3 (INSL3) PEPTIDE RECEPTOR RXFP2 AND METHODS OF USE THEREOF” (The United States of America,as represented by the …, priority 2022, published 2025).

How the values were obtained:
RXFP2 = molecular target: T1, RXFP2 (Homo sapiens, UniProt Q8WXD0); assay: Luciferase cAMP assay in HEK-CRE-Luc-RXFP2 cells; type: cell-based; settings: for EC50: 3 h treatment; for Emax (% Eff vs. 10 nM INSL3): relative to 10 nM INSL3 response
T1 construct: expressed in transfected cells
T1 sequence (Q8WXD0 whole entry): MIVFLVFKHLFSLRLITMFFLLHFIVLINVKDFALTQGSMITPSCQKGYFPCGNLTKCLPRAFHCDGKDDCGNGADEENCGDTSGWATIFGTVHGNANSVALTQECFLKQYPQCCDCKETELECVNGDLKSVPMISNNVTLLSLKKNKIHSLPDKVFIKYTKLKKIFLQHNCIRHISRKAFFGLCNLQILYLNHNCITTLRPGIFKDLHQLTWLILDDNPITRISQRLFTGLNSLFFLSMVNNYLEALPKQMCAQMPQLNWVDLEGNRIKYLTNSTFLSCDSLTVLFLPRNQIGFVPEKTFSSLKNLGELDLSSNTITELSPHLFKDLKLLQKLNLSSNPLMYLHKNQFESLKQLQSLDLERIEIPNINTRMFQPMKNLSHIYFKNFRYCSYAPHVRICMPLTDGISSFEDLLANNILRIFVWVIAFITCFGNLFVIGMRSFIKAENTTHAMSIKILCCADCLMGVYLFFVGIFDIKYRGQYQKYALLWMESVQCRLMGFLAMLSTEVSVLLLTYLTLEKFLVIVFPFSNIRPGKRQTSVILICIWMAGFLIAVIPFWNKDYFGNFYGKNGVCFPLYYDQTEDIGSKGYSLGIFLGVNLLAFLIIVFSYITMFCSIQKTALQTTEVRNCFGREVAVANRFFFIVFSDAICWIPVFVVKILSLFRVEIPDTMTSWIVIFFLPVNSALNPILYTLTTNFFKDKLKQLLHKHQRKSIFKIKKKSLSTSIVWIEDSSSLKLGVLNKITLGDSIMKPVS
Protocol: A confirmatory cAMP assay was done to eliminate false positives using a HEK293T-CRE-Luc cell line stably transfected with RXFP2 (HEK-CRE-Luc-RXFP2), as this cell line expresses luciferase under the control of the cAMP response element (CRE). Activation of the RXFP2 receptor increases intracellular cAMP levels, inducing luciferase transcription in the nucleus. Thus, luciferase activity in these cells is proportional to cAMP accumulation. For this assay, cells were seeded in 96-well flat-bottom opaque plates at 20,000 cells/well in 60 μL/well of serum-free DMEM medium and allowed to attach overnight at 37° C., 5% CO2. The next morning, cells were treated with 1 μL/well of compound (25 μM-0.21 nM), 1 μM forskolin, or DMSO vehicle. Cells were also treated with 4 μL of INSL3 (100-0.01 nM) (Phoenix Pharmaceuticals, Burlingame, CA) or vehicle serum-free DMEM. Cells were incubated with the treatments for 3 hours at 37° C., 5% CO2, then rested 30 minutes at room temperature for equilibration, after which 65 μL/well of substrate AMPLITE™ Luciferase Reporter Gene Assay Kit (AAT Bioquest, Sunnyvale, CA) was added. Plates were incubated for 40 minutes at room temperature protected from light, and then luciferase output was read on a CLARIOstar plate reader (BMG Labtech, Germany). […]

HEK293T cells = assay: CellTiter-Glo cytotoxicity assay in HEK293T cells; type: cell-based, human; settings: 24 h, 25 μM and 8.3 μM
Protocol: Cytotoxicity induced by the compounds in HEK293T cells and primary human calvarial osteoblasts (HCO) (ScienCell Research Laboratories, San Diego, CA) were tested using the […]-GLO™ Luminescent Cell Viability Assay (Promega, Madison, WI). This is a luminescence-based assay that determines viable cells by measuring cellular adenosine triphosphate (ATP) production. The luciferase enzyme requires ATP to catalyze the conversion of beetle luciferin to oxyluciferin and light. Thus, luciferase activity is proportional to ATP accumulation in the cells. For this assay, 96-well flat-bottom opaque plates seeded with HEK293T cells at 5,000 cells/well and HCO cells at 3,000 cells/well in 100 μL/well of growth medium (DMEM, 10% FBS, 1× Penicillin/Streptomycin). After incubating overnight at 37° C., 5% CO2 to allow attachment, cells were treated with 1 μL/well of compound (25-0.1 μM) or DMSO vehicle and incubated an additional 24 hours. Then cells were equilibrated for 30 minutes at room temperature and 100 μL/well of […]-GLO™ Reagent was added. Plates were placed on an orbital shaker for 2 minutes and incubated at room temperature for 10 minutes to stabilize the luminescent signal, which was read immediately after on a CLARIOstar plate reader (BMG Labtech, Germany). […] The HEK293T results represent the means±SEM of 3 technical replicates. The HCO results represent the means±SEM of 3 independent experiments.

mouse RXFP2 = molecular target: T2, mouse RXFP2 (Mus musculus, UniProt Q91ZZ5); assay: Luciferase cAMP assay in HEK-CRE-Luc cells transiently transfected with mouse RXFP2; type: cell-based; settings: 10 μM-[…], compared with human RXFP2 response
T2 construct: expressed in transfected cells; host or cells: HEK-CRE-Luc (transient, Lipofectamine2000)
T2 sequence (Q91ZZ5 whole entry): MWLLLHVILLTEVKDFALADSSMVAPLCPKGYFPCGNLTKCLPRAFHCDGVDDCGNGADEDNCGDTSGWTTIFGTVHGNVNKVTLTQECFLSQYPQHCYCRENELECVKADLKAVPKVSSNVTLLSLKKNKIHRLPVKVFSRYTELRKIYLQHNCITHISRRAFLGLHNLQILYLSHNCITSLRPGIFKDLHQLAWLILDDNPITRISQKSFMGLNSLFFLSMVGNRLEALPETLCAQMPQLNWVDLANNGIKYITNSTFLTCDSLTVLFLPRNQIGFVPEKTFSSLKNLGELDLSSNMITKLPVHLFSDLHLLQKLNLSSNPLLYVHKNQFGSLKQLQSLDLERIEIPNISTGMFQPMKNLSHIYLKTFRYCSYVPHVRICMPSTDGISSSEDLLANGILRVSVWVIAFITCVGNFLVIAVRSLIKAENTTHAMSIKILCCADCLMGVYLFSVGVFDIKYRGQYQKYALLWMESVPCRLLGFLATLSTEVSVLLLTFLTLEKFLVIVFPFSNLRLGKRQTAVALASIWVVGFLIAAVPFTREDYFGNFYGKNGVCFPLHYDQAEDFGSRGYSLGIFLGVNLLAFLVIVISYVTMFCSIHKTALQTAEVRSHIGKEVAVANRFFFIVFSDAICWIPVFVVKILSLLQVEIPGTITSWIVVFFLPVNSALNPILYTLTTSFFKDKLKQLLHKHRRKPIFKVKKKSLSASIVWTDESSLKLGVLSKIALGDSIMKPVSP
Protocol: It was of interest if the RXFP2 agonists of formula (I) activate the mouse RXFP2 receptor. HEK-CRE-Luc cells transiently transfected with mouse RXFP2 were used to test agonist activity by measuring induction of cAMP. For this assay, cells were seeded in 6-well flat-bottom clear plates at 0.6 million cells/well in 2 mL/well of growth medium (DMEM, 10% FBS, 1× Pen/Strep) and allowed to attach overnight at 37° C., 5% CO2. The next morning, cells were transfected with 2 μg of plasmid (human or mouse RXFP2) and 6 μL of Lipofectamine2000 (Invitrogen, Waltham, MA) in a total volume of 200 μl/well OPTI-MEM™ I (Thermo Fisher, Waltham, MA) reduced serum medium and incubated an additional 24 hours. The transfected cells were then harvested and seeded in 96-well flat-bottom opaque plates at 30,000 cells/well in 60 μL/well of serum-free DMEM medium and incubated overnight to attach. The next morning, cells were treated with 1 μL/well of compound (10 μM-1.2 nM), 2 μM forskolin, or DMSO vehicle, and with 4 μL of positive control INSL3 (100-0.01 nM) (Phoenix Pharmaceuticals, Burlingame, CA) or vehicle serum-free DMEM. […] Plates were incubated for 40 minutes at room temperature protected from light, and the signal was read on a CLARIOstar plate reader (BMG Labtech, Germany). […]

[1] = tested on: gubernaculum of female embryos; assay: Gubernaculum development in female embryos of treated pregnant mice; type: in vivo, C57BL/6J mice; settings: 30 mg/kg intraperitoneal to pregnant females, embryonic day 12.5 to 17.5
From the text: The role of INSL3 and RXFP2 in gubernaculum development for the initial transabdominal descent of the testis during embryogenesis has been widely characterized in Insl3^-/- and Rxfp2^-/- mouse models of cryptorchidism. […] The gubernaculum is composed of the gubernacular bulb and cord, and it has begun invagination into the abdominal wall in preparation for the inguinoscrotal stage of testicular descent, which will finalize after birth. […] The hypothesis for our experiment is that by injecting pregnant females with the RXFP2 agonists during this embryonic development window, gubemaculum development could be induced in female embryos, which has been previously shown in female embryos overexpressing INSL3. […] For this assay, whole embryos were fixed in 10% formaldehyde for 24 hours. Afterwards, embryos were washed twice with PBS for 1 hour, followed by 3 consecutive washes with increasing concentrations of ethanol (30%, 50% and 70%) for 30 minutes. Fixed embryos were prepared for histology using an automatic tissue processor (Leica TP1020, Leica Biosystems, Germany), embedded in paraffin wax, and 5-7 μm sagittal serial sections were cut using an automated rotary microtome (Leica RM2255, Leica Biosystems, Germany). […] At least 4 embryos were analyzed per treatment group.

| EC50 (RXFP2; 25 μM-[…]) [nM] | Emax (% Eff vs. 10 nM INSL3) (RXFP2) [%] | EC50 (RXFP2; 25 μM-0.21 nM) [nM] | RXFP2 agonist activity (RXFP2; luciferase cAMP assay) | SMILES | cytotoxicity (HEK293T cells) | mouse RXFP2 activation (cAMP, luciferase) (mouse RXFP2) | gubernaculum morphology in embryonic day 18.5 female embryos [1] |
| --- | --- | --- | --- | --- | --- | --- | --- |
| 58.5 | 117.1 |  |  | O=C1Nc2ccc(-c3cccc(C(F)(F)F)c3)cc2C(=O)N2CCN(C(=O)COc3ccc(OC(F)(F)F)cc3Br)C[C@@H]12 [Example 123, (S)-2-(2-(2-bromo-4-(trifluoromethoxy)phenoxy)acetyl)-8-(3-(trifluoromethyl)phenyl)-1,3,4,12a-tetrahydrobenzo[e]pyrazino[1,2-a][1,4]diazepine-6,12 (2H, 11H)-dione] | some toxicity | activate the mouse RXFP2 receptor at levels comparable to human RXFP2 activation |  |
|  | 105.5 | 25.8 | potent RXFP2 agonists | O=C1Nc2ccc(-c3cc(C(F)(F)F)cc(C(F)(F)F)c3)cc2C(=O)N2CCN(C(=O)COc3ccc(OC(F)(F)F)cc3Br)C[C@@H]12 [Example 158, (S)-8-(3,5-Bis(trifluoromethyl)phenyl)-2-(2-(2-bromo-4-(trifluoromethoxy)phenoxy)acetyl)-1,3,4,12a-tetrahydrobenzo[e]pyrazino[1,2-a][1,4]diazepine-6,12 (2H, 11H)-dione] | some toxicity | activate the mouse RXFP2 receptor at levels comparable to human RXFP2 activation | male-like invagination of the gubemaculum |
|  |  |  |  | O=C1Nc2ccc(-c3cc(C(F)(F)F)cc(C(F)(F)F)c3)cc2C(=O)N2CCN(C(=O)COc3ccc(OC(F)(F)F)cc3I)C[C@@H]12 [Example 187, (S)-8-(3,5-bis(trifluoromethyl)phenyl)-2-(2-(2-iodo-4-(trifluoromethoxy)phenoxy)acetyl)-1,3,4,12a-tetrahydrobenzo[e]pyrazino[1,2-a][1,4]diazepine-6,12 (2H, 11H)-dione] |  |  | male-like invagination of the gubemaculum |
